Data as given in PubChem BioAssay (NCI).
Several values for one entry are separate records, joined by “and”; a condition that tells them apart may be missing. Equal entries are not always repeated.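 Tested at 5 concentrations; 48 h exposure; 96-well plates; endpoints linearly interpolated, else capped at highest concentration. GI50 = concentration required for 50% inhibition of growth. At the TGI there is no net growth.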

Tests used:
Assay in all cases: NCI anticancer screen, dose series, 48 h
DU-145 prostate = tested on: DU-145 prostate
K-562 leukemia = tested on: K-562 leukemia
SR leukemia = tested on: SR leukemia
ACHN renal = tested on: ACHN renal
SK-OV-3 ovarian = tested on: SK-OV-3 ovarian
SW-620 colon = tested on: SW-620 colon
HL-60(TB) leukemia = tested on: HL-60(TB) leukemia
NCI-H460 lung = tested on: NCI-H460 lung
MDA-MB-231 breast = tested on: MDA-MB-231 breast
IGROV1 ovarian = tested on: IGROV1 ovarian

SMILES | GI50 (DU-145 prostate) [µM] | TGI (DU-145 prostate) [µM] | GI50 (K-562 leukemia) [µM] | TGI (K-562 leukemia) [µM] | GI50 (SR leukemia) [µM] | TGI (SR leukemia) [µM] | TGI (ACHN renal) [µM] | GI50 (SK-OV-3 ovarian) [µM] | TGI (SK-OV-3 ovarian) [µM] | GI50 (SW-620 colon) | TGI (SW-620 colon) [µM] | GI50 (HL-60(TB) leukemia) [µM] | TGI (HL-60(TB) leukemia) | GI50 (NCI-H460 lung) | TGI (NCI-H460 lung) [µM] | GI50 (MDA-MB-231 breast) [µM] | TGI (MDA-MB-231 breast) [µM] | GI50 (IGROV1 ovarian) | TGI (IGROV1 ovarian) [µM]
C#CCN(Cc1nc2cc(C(F)(F)F)ccc2nc1-c1ccccc1)c1ccc(C)cc1 | > 34.5 | > 77.9 | 33 | > 100 | 16.1 | 41.3 | > 33.5 | 8.56 | > 26.4 | 12.8 µM | > 100 | 3.85 | > 74.5 µM | 3.93 µM | > 100 | 9.39 | 40.4 | 6.13 µM | > 64.9
COC(=O)C1=COC(C)C2CN3CCc4c([nH]c5cc(OC)c(OC)cc45)C3CC12 (configuration not stated) |  | > 100 |  | > 100 |  | > 100 | > 100 |  | > 100 | > 100 µM and 39.1 µM | > 100 |  | 66.6 µM and 65.9 µM | 67.1 µM and 22.4 µM | > 100 |  | > 100 | > 100 µM and 45.7 µM | > 100
CONC(C)=O |  | > 100 |  | > 100 |  | > 100 | > 100 |  | > 100 |  | > 100 |  | > 100 µM |  | > 100 |  | > 100 |  | > 100
